Test results taken from ChEMBL document CHEMBL2095176, “GSK Tuberculosis Screening Data”.
In brackets after ≈: the same amount, converted by molar mass.

What follows are compounds tested on Mycobacterium tuberculosis variant bovis BCG (assay: microbe, parasite or virus in culture).
Format: functional

Row | Structure (SMILES) | MIC90
1 | O=C(c1cnn(C(=O)c2ccco2)c1)c1cc(F)ccc1O | 4.2 µM (≈ 1.26 µg/mL)
2 | CC(Oc1ccccc1)C(=O)Nc1nc(-c2ccccn2)cs1 (stereo unspecified) | 5.4 µM (≈ 1.76 µg/mL)
3 | Cc1ccc(-c2nnc(C)c(N3CCCC3)n2)cc1 | 10 µM (≈ 2.54 µg/mL)
4 | FC(F)(F)c1nnc2ccc(Cl)nn12 | 6.6 µM (≈ 1.47 µg/mL)
5 | CN(Cc1ccccc1)c1ccc2nnc(-c3ccccc3)n2n1 | 9.9 µM (≈ 3.12 µg/mL)
6 | O=C(Cc1ccc(F)cc1)Nc1nc(-c2ccccn2)cs1 | 8.9 µM (≈ 2.79 µg/mL)
7 | COc1cc(CN2CCC3(C=Cc4ccccc43)CC2)cc2c1OCO2 | 3.1 µM (≈ 1.08 µg/mL)
8 | Fc1cccc(-c2nc(NCC3COc4ccccc4O3)no2)c1F (stereo unspecified) | 9.2 µM (≈ 3.18 µg/mL)
9 | O=C(NNC(=O)c1cc2cc([N+](=O)[O-])ccc2s1)c1cccs1 | 9.2 µM (≈ 3.2 µg/mL)
10 | CCOc1ccc(C(=O)Nc2cc(Cl)c3c(c2)CNCC3)cc1C(C)=O | 9.2 µM (≈ 3.43 µg/mL)
11 | Cc1cnc(N2CCN[C@@H](Cc3ccccc3)C2)nc1Oc1ccc(-n2ccnc2)cc1.O=C(O)C(F)(F)F | 8.1 µM
12 | CCCCc1ccc(C(=O)Nc2nccc3ccccc23)nc1 | 7.2 µM (≈ 2.2 µg/mL)
13 | Cc1ccc(S(=O)(=O)N2CCC(n3nnc4cc(C(F)(F)F)ccc43)CC2)cc1Cl | 9.3 µM (≈ 4.27 µg/mL)
14 | NC1CCCN(c2ncnc(-c3ccc4c(c3)CCC4)n2)C1 (stereo unspecified) | 9.3 µM (≈ 2.75 µg/mL)
15 | c1ccc(-c2ccc(CNCCn3ccnc3-c3ccccc3)cc2)cc1 | 9.3 µM (≈ 3.29 µg/mL)
16 | CCOC(=O)c1csc(-c2ccccc2NC(=O)OCC2CCNCC2)n1 | 9.3 µM (≈ 3.62 µg/mL)
17 | Cn1cc(-c2noc(CCNCCC(C)(C)C)n2)c2ccccc21 | 9.3 µM (≈ 3.04 µg/mL)
18 | CSc1ccc(-c2nnc(NC(=O)c3cc(Cl)sc3Cl)o2)cc1 | 9.4 µM (≈ 3.63 µg/mL)
19 | O=C(Nc1cccc2cccnc12)c1cnccn1 | 9.4 µM (≈ 2.35 µg/mL)
20 | O=C(Cc1c(Cl)cccc1Cl)Nc1nc(-c2ccccn2)cs1 | 9.4 µM (≈ 3.42 µg/mL)
21 | FC(F)(F)c1ccc2c(N3CCNCC3)ncc(-c3ccsc3)c2n1 | 9.4 µM (≈ 3.43 µg/mL)
22 | Cc1ccc2c(c1)c(=O)cc(C(F)(F)F)n2CCNC(=O)c1ccccc1F | 9.4 µM (≈ 3.69 µg/mL)

Row | Structure (SMILES) | MIC90
23 | O=C(CCc1ccsc1)Nc1nc(-c2ccccn2)cs1 | 9.4 µM (≈ 2.96 µg/mL)
24 | Cc1ccc(C)c2nc(N3CCN(C)CC3)c(C#N)cc12 | 9.4 µM (≈ 2.64 µg/mL)
25 | Cn1cc(-c2noc(CCN[C@H]3CC[C@H](C)CC3)n2)c2ccccc21 | 9.4 µM (≈ 3.18 µg/mL)
26 | Nc1cc(OCc2ccccc2)ccc1Nc1ccccc1 | 2.1 µM (≈ 0.61 µg/mL)
27 | CC1(C)NC(N)=NC(=N)N1OCCCOc1ccc2ccccc2c1 | 9.5 µM (≈ 3.24 µg/mL)
28 | CC(=O)N(C)c1ccc(Oc2ccnc(NCc3c(C)cccc3C)n2)cc1 | 9.5 µM (≈ 3.58 µg/mL)
29 | CC1CC(NC(=O)c2ccc(Oc3ccccc3)cc2)CC(C)(C)C1 (stereo unspecified) | 9.5 µM (≈ 3.21 µg/mL)
30 | Cc1ccc(NC(=O)c2cccc(Cl)c2F)cc1-c1ccc(C(N)=O)cc1 | 9.5 µM (≈ 3.64 µg/mL)
31 | COc1ccc2sc(Nc3nc(C)n(-c4ccccc4)c(=O)n3)nc2c1 | 9.5 µM (≈ 3.47 µg/mL)
32 | CCOc1ccccc1NC(=O)[C@H](Cc1ccccc1)NC(=O)c1cccs1 | 9.5 µM (≈ 3.75 µg/mL)
33 | Cc1ccc2sc(N(CCCn3ccnc3)C(=O)c3cccs3)nc2c1C | 9.5 µM (≈ 3.77 µg/mL)
34 | Cc1nc2c(C)cccn2c1C(=O)NCc1ccc2c(c1)OCO2 | 9.5 µM (≈ 3.07 µg/mL)
35 | CC(C)(C)OC(=O)n1cc(CN2CCC3(CC2)OCCc2sccc23)c2ccccc21 | 9.5 µM (≈ 4.17 µg/mL)
36 | CC(C)N(C(=O)CSc1nc2cc(Cl)ccc2[nH]1)C(C)C | 9.5 µM (≈ 3.1 µg/mL)
37 | Cc1cc(N)nc2cc(-c3ccc(CCN)cc3)ccc12 | 9.5 µM (≈ 2.64 µg/mL)
38 | COc1ccc2cc(C(=O)Nc3ccc(C4CCN(C)CC4)cc3)sc2c1 | 2.9 µM (≈ 1.1 µg/mL)
39 | CSc1cccc(-c2nnc(NC(=O)c3ccc(Cl)s3)o2)c1 | 9.6 µM (≈ 3.38 µg/mL)
40 | O=c1c2snc(-c3ccc(F)cc3)c2ncn1Cc1ccc(F)cc1 | 9.6 µM (≈ 3.41 µg/mL)
41 | Cc1ccc(S(=O)(=O)c2nc(S(=O)(=O)c3ccccc3)sc2Cl)cc1 | 9.6 µM (≈ 3.97 µg/mL)
42 | C=CCNCCS(=O)(=O)c1cccc(Nc2ncc(-c3cccc(F)c3)cn2)c1 | 9.6 µM (≈ 3.96 µg/mL)
43 | CCOc1ccc(-c2nnc(NC(=O)c3cnc(Cl)c(Cl)c3)o2)cc1 | 9.6 µM (≈ 3.64 µg/mL)
44 | CCOc1cc(OCC)c(C(=O)C(C)C)cc1C(=O)Nc1cccc2c1CCN(C)C2 | 9.6 µM (≈ 4.08 µg/mL)

Row | Structure (SMILES) | MIC90
45 | CCc1ccc(S(=O)(=O)Nc2cc(CN3CCN(CC4CC4)CC3)ccc2C)cc1 | 9.6 µM (≈ 4.11 µg/mL)
46 | O=C(CSCc1ccc(Cl)cc1)NNC(=O)c1ccncc1 | 9.7 µM (≈ 3.26 µg/mL)
47 | CC(=O)N1CCN(Cc2ccc(-c3ccc(NS(=O)(=O)c4ccc(C)cc4)cc3)cc2)CC1 | 9.7 µM (≈ 4.5 µg/mL)
48 | COc1cccc(-c2nc3c(N4CCCC4)cccc3n2CC2CCCN2)n1.O=C(O)C(F)(F)F (stereo unspecified) | 5.8 µM
49 | Cn1c(=O)c2c([S+](C)[O-])snc2n(C)c1=O (stereo unspecified) | 5.6 µM (≈ 1.45 µg/mL)
50 | Cc1cc(CN2CCCN(c3ncc(-c4ccsc4)c4nc(C(F)(F)F)ccc34)CC2)no1 | 9.8 µM (≈ 4.64 µg/mL)
51 | CC1Sc2ccc(C(=O)N3CCCCC3c3nc4ccccc4s3)cc2NC1=O (stereo unspecified) | 9.8 µM (≈ 4.15 µg/mL)
52 | Cc1ccc(CCNC(=O)c2c(-c3ccc(F)cc3F)noc2C)cc1 | 9.8 µM (≈ 3.49 µg/mL)
53 | CCn1c(NC(=O)Cc2ccc(Cl)cc2)nc2ccccc21 | 9.8 µM (≈ 3.08 µg/mL)
54 | CS(=O)(=O)Nc1cccc(-c2cnc3[nH]cc(-c4cccc(CCN)c4)c3c2)c1 | 9.8 µM (≈ 3.98 µg/mL)
55 | O=C(CSc1nc(-c2ccccc2)cs1)NNC(=O)c1cccs1 | 9.8 µM (≈ 3.68 µg/mL)
56 | O=C(Nc1nnc(-c2ccccc2)o1)c1ccc(Cl)s1 | 9.8 µM (≈ 3 µg/mL)
57 | Cc1cc(C)cc(Oc2c(C(C)C)c(=O)[nH]c(=O)n2Cc2cc(N)nc(F)c2)c1 | 9.8 µM (≈ 3.9 µg/mL)
58 | CN1CCc2c(cccc2NC(=O)c2cc(Br)cc3c2OCC3)C1 | 9.8 µM (≈ 3.8 µg/mL)
59 | CN(C)c1ccc(NC(=O)Nc2cccc3ncccc23)cc1 | 9.8 µM (≈ 3 µg/mL)
60 | Cc1ccc2nc(SCC(=O)N(C(C)C)C(C)C)[nH]c2c1 | 9.9 µM (≈ 3.02 µg/mL)
61 | Cc1ccc2nc(C(F)(F)F)c(C(=O)NCc3ncc(C(F)(F)F)cc3Cl)n2c1 | 9.9 µM (≈ 4.32 µg/mL)
62 | Cc1cc(Br)ccc1-c1ccc(CNCC(C)O)o1 (stereo unspecified) | 9.9 µM (≈ 3.21 µg/mL)
63 | CSc1nc2ccccc2n1-c1nccc(N2CCN(CCN)CC2)n1 | 9.9 µM (≈ 3.66 µg/mL)
64 | O=C(NNC(=O)c1cccs1)c1ccc(OCc2ccccc2)cc1 | 9.9 µM (≈ 3.49 µg/mL)
65 | CN(C)CCOc1ccc2c(c1)N(C(=O)Cc1ccc(Cl)c(Cl)c1)CC2 | 9.9 µM (≈ 3.89 µg/mL)
66 | CN(C)CCN(Cc1ccc(-c2cccc(CN)c2)cc1)C(=O)CCC1CCCC1 | 9.9 µM (≈ 4.04 µg/mL)

Row | Structure (SMILES) | MIC90
67 | CCCCNC(=O)c1cccc(-c2ccc(OCc3ccccc3)cc2)c1 | 9.9 µM (≈ 3.56 µg/mL)
68 | CCCc1ccc(S(=O)(=O)Nc2cc(CN3CCN(CCC)CC3)ccc2C)cc1 | 9.9 µM (≈ 4.25 µg/mL)
69 | O=C(NCCCn1nc(Cl)c(N2CCCNCC2)cc1=O)c1ccc(-c2ccccc2)cc1 | 10 µM (≈ 4.66 µg/mL)
70 | Cc1nn(CC(C)C)c(Cl)c1C(=O)Nc1nc(-c2ccccn2)cs1 | 10 µM (≈ 3.76 µg/mL)
71 | Oc1ccc(CCNc2nc(NCc3cccc4ccccc34)nc(NC3CCNCC3)n2)cc1 | 10 µM (≈ 4.7 µg/mL)
72 | O=C(NC1CCN(Cc2ccccc2)C1)c1cccc(-c2ccc(Cl)cc2)c1 (stereo unspecified) | 10 µM (≈ 3.91 µg/mL)
73 | Cc1ccc2c(CC(=O)Nc3nc(-c4ccccn4)cs3)coc2c1 | 10 µM (≈ 3.49 µg/mL)
74 | CCOc1ccccc1NC(=O)C(Cc1ccccc1)NC(=O)c1cccs1 (stereo unspecified) | 9 µM (≈ 3.55 µg/mL)
75 | Cc1cc(C)c2nc3c(cc2c1)CN(Cc1ccco1)C(=O)O3 | 9 µM (≈ 2.78 µg/mL)
76 | O=C(NC1CCN(Cc2ccsc2)C1)c1sccc1-c1cccc(Cl)c1 (stereo unspecified) | 9 µM (≈ 3.63 µg/mL)
77 | Cc1nc2ccccn2c1C(=O)NCc1cccs1 | 3.9 µM (≈ 1.06 µg/mL)
78 | CN1CCN(c2cc(-c3ccncc3)nc(-c3ccccc3)n2)CC1 | 8.5 µM (≈ 2.82 µg/mL)
79 | CSc1ccc(CC(=O)Nc2nc(-c3ccccn3)cs2)cc1 | 9.1 µM (≈ 3.11 µg/mL)
80 | COc1ccc(CNC(=O)c2cnn3c2NC(c2ccc(OC)cc2)CC3C(F)(F)F)cc1 (stereo unspecified) | 9.1 µM (≈ 4.19 µg/mL)
81 | CCN(Cc1ccc(Cl)s1)C(=O)CSc1nc(NC)c2ccccc2n1 | 9.1 µM (≈ 3.7 µg/mL)
82 | c1ccc2nc(CN3CCC4(CC3)OCCc3sccc34)ccc2c1 | 9.1 µM (≈ 3.19 µg/mL)
83 | Cc1ccc(O)cc1Nc1ccnc2ccc(-c3cccc(CNCCN(C)C)c3)cc12 | 9.1 µM (≈ 3.88 µg/mL)
84 | Oc1nc(-c2ccccn2)nc(C(F)(F)F)c1Br | 9.6 µM (≈ 3.07 µg/mL)
85 | CNC1=NC(=O)[C@H]([C@H](C)c2c[nH]c3ccccc23)O1 [INDOMYCIN] | 5 µM (≈ 1.29 µg/mL)
86 | Cn1cc(NC(=O)c2cc(NC(=O)CNC(=N)N)cn2C)cc1C(=O)NCCC(=N)N [NETROPSIN CHLORIDE] | 3.6 µM
